Where “and” joins values, the source holds several entries; their conditions need not be identical. Equal entries are not always repeated.
Assay: mn = molality of the nth substance listed, in mol/kg
Settings: 100 kPa, Liquid; for viscosity: Capillary tube (Ostwald / Ubbelohde) method; for mass density: Vibrating tube method

CN(CC(=O)O)C(=N)N [N-amidinosarcasine] + O
Settings | mass density, 293.15 K [kg/m3] | mass density, 298.15 K [kg/m3] | mass density, 303.15 K [kg/m3] | mass density, 308.15 K [kg/m3] | mass density, 313.15 K | viscosity, 293.15 K [mPa·s] | viscosity, 298.15 K [mPa·s] | viscosity, 303.15 K [mPa·s] | viscosity, 308.15 K [mPa·s] | viscosity, 313.15 K [mPa·s]
m1 = 0.02 | – | – | – | – | – | 1.008 | 0.895 | 0.804 | 0.723 | 0.658
m1 = 0.03 | – | – | – | – | – | 1.011 | 0.898 | 0.806 | 0.727 | 0.659
m1 = 0.0306 | 999.51 | 998.33 | 996.9 | 995.23 | 993.35 kg/m3 | – | – | – | – | –
m1 = 0.04 | 999.9 | 998.72 | 997.28 | 995.6 | 993.7 kg/m3 | 1.014 | 0.901 | 0.808 | 0.729 | 0.662
m1 = 0.0406 | 999.93 | 998.74 | 997.31 | 995.63 | 993.73 kg/m3 | – | – | – | – | –
m1 = 0.0477 | 1000.23 | 999.04 | 997.6 | 995.91 | 994 kg/m3 | – | – | – | – | –
m1 = 0.05 | 1000.33 | 999.13 | 997.69 | 996 | 994.09 kg/m3 | 1.017 | 0.904 | 0.81 | 0.731 | 0.664
m1 = 0.0548 | 1000.53 | 999.33 | 997.89 | 996.2 | 994.28 kg/m3 | – | – | – | – | –
m1 = 0.0564 | 1000.59 | 999.4 | 997.96 | 996.26 | 994.35 kg/m3 | – | – | – | – | –
m1 = 0.0597 | 1000.73 | 999.53 | 998.09 | 996.39 | 994.47 kg/m3 and 994.48 kg/m3 | 1.019 | 0.907 | 0.811 | 0.733 | 0.665
m1 = 0.0675 | 1001.06 | 999.86 | 998.41 | 996.71 | 994.79 kg/m3 | – | – | – | – | –
m1 = 0.0701 | 1001.17 | 999.96 | 998.52 | 996.82 | 994.89 kg/m3 | 1.024 | 0.91 | 0.817 | 0.737 | 0.669
m1 = 0.0727 | 1001.27 | 1000.07 | 998.63 | 996.92 | 995 kg/m3 | – | – | – | – | –
m1 = 0.0782 | 1001.5 | 1000.29 | 998.85 | 997.15 | 995.22 kg/m3 | – | – | – | – | –
m1 = 0.08 | 1001.58 | 1000.37 | 998.93 | 997.22 | 995.3 kg/m3 | 1.028 | 0.913 | 0.818 | 0.738 | 0.67
m1 = 0.0898 | 1001.98 | 1000.77 | 999.34 | 997.63 | 995.71 kg/m3 | – | – | – | – | –
m1 = 0.09 | 1001.99 | 1000.78 | 999.34 | 997.64 | 995.71 kg/m3 | 1.033 | 0.917 | 0.823 | 0.74 | 0.672
m1 = 0.0926 | 1002.1 | 1000.89 | 999.45 | 997.74 | 995.82 kg/m3 | – | – | – | – | –
m1 = 0.1038 | 1002.56 | 1001.35 | 999.92 | 998.21 | 996.3 kg/m3 | – | – | – | – | –
m1 = 0.1113 | 1002.87 | 1001.65 | 1000.23 | 998.53 | 996.62 kg/m3 | – | – | – | – | –
m1 = 0.1207 | 1003.25 | 1002.04 | 1000.62 | 998.93 | 997.03 kg/m3 | – | – | – | – | –
m1 = 0.1287 | 1003.58 | 1002.36 | 1000.96 | 999.26 | 997.39 kg/m3 | – | – | – | – | –
m1 = 0.1326 | 1003.74 | 1002.52 | 1001.12 | 999.43 | 997.56 kg/m3 | – | – | – | – | –

CN1CC(=O)NC1=N [creatinine] + O
Settings | mass density, 293.15 K [kg/m3] | mass density, 298.15 K [kg/m3] | mass density, 303.15 K [kg/m3] | mass density, 308.15 K [kg/m3] | mass density, 313.15 K [kg/m3] | viscosity, 293.15 K [mPa·s] | viscosity, 298.15 K [mPa·s] | viscosity, 303.15 K [mPa·s] | viscosity, 308.15 K [mPa·s] | viscosity, 313.15 K [mPa·s]
m1 = 0.1001 | 1001.16 | 999.95 | 998.49 | 996.82 | 994.94 | – | – | – | – | –
m1 = 0.147 | 1002.53 | 1001.29 | 999.82 | 998.13 | 996.21 | – | – | – | – | –
m1 = 0.2001 | – | – | – | – | – | 1.053 | 0.935 | 0.837 | 0.755 | 0.685
m1 = 0.202 | 1004.12 | 1002.86 | 1001.37 | 999.64 | 997.69 | – | – | – | – | –
m1 = 0.25 | 1005.5 | 1004.22 | 1002.71 | 1000.97 | 999 | – | – | – | – | –
m1 = 0.2999 | – | – | – | – | – | 1.077 | 0.956 | 0.856 | 0.772 | 0.7
m1 = 0.3023 | 1006.99 | 1005.69 | 1004.16 | 1002.4 | 1000.43 | – | – | – | – | –
m1 = 0.3496 | 1008.33 | 1007.01 | 1005.48 | 1003.7 | 1001.71 | – | – | – | – | –
m1 = 0.3996 | – | – | – | – | – | 1.102 | 0.978 | 0.875 | 0.789 | 0.715
m1 = 0.4028 | 1009.83 | 1008.48 | 1006.94 | 1005.13 | 1003.12 | – | – | – | – | –
m1 = 0.5002 | – | – | – | – | – | 1.126 | 0.999 | 0.894 | 0.806 | 0.73
m1 = 0.5014 | 1012.57 | 1011.2 | 1009.63 | 1007.79 | 1005.76 | – | – | – | – | –
m1 = 0.5514 | 1013.95 | 1012.56 | 1010.97 | 1009.12 | 1007.08 | – | – | – | – | –
m1 = 0.6 | – | – | – | – | – | 1.15 | 1.02 | 0.912 | 0.822 | 0.745
m1 = 0.6018 | 1015.33 | 1013.93 | 1012.34 | 1010.48 | 1008.4 | – | – | – | – | –
m1 = 0.6087 | 1015.52 | 1014.11 | 1012.53 | 1010.65 | 1008.61 | – | – | – | – | –
m1 = 0.6491 | 1016.62 | 1015.21 | 1013.61 | 1011.72 | 1009.65 | – | – | – | – | –
m1 = 0.7 | – | – | – | – | – | 1.173 | 1.04 | 0.93 | 0.838 | 0.759
